The values below come from PubChem BioAssay AID434942 (Johns Hopkins Ion Channel Center, 2010).

The structures appear in SMILES notation.

The assay has as its target Short transient receptor potential channel 4 (Mus musculus) (UniProt Q9QUQ5). The assay can be described thus: block of DAMGO-driven TRPC4 calcium entry – cell-based, HEK293 TRPC4/mu-opioid, Fluo-4 calcium, dose response (AID 434942).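 Also: potency of inhibitors blocking the DAMGO-evoked TRPC4 calcium rise.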 Conditions: HEK293 TRPC4/mu-opioid cells, DAMGO-evoked Fluo-4 calcium ratio.

Chain of Short transient receptor potential channel 4 (Mus musculus) (Q9QUQ5 whole entry, looked up): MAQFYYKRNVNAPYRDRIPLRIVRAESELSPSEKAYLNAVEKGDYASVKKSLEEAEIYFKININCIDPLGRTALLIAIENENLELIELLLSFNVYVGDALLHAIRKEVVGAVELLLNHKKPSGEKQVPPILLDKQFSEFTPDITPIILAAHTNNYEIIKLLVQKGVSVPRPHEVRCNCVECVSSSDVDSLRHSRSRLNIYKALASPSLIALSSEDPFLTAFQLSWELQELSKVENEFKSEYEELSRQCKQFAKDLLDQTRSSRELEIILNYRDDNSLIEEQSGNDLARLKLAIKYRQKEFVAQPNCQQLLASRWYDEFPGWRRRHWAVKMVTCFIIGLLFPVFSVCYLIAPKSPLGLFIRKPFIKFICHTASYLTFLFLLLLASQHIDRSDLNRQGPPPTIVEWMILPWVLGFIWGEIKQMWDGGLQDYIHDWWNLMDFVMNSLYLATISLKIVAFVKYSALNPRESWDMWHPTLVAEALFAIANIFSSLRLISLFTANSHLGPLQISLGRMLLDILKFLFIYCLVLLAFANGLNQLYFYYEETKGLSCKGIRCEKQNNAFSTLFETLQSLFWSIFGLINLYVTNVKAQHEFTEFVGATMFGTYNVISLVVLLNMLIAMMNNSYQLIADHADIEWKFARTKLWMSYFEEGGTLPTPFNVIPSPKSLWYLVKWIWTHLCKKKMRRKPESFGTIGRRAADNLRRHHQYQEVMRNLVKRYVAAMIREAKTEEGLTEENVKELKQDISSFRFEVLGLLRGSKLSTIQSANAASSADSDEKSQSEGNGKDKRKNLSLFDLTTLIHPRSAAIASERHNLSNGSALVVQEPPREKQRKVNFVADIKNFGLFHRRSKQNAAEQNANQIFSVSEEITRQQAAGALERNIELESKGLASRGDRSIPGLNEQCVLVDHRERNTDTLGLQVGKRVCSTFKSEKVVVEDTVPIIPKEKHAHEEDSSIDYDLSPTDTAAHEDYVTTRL

On to `CC(=O)Nc1ccc(C2(c3ccc(NC(C)=O)cc3)C(=O)Nc3ccccc32)cc1`, for which the IC50 is 1.5 µM.

Regarding `CC1Cc2ccccc2N1C(=O)CSc1nc2c(c(=O)n(C)c(=O)n2C)n1Cc1ccccc1` (configuration not stated), the IC50 is 2.11 µM.

What is called IC50 is the point on the concentration scale where inhibition reaches its midpoint.
